US7611863B2, “Selective staining of biomembranes using voltage-sensitive dyes” (Max-Planck-Gesellschaft zur Foerderung der Wissenschaften …, priority 2004, dated 2009)

System: Madine Darby Canine Kidney (MDCK) cells
Assay: Enzyme induced staining of transiently transfected MDCK cells
Format: cell-based
Conditions: 200 nM
Procedure: FIG. 19. Genetically Targeted Staining of MDCK cells with Di-10P-ASPBS and Di-12P-ASPBS. (A) Cells were cotransfected with the membrane-bound phosphatase construct termed ArtPlasMA AP and H2B-GFP, a nucleus-localized transfection marker. Brightfield image and fluorescence images before (−1 sec) and after addition of 200 nM Di-10P-ASPBS. (B) Analogous to row A, but using 200 nM Di-12P-ASPBS. (C) Control experiment. Cells were transfected only with H2B-GFP and incubated with 200 nM Di-12P-ASPBS. Brightfield image and fluorescence images before (−1 sec) and after addition of dye (8 min). (D) Control experiment. Cells were cotransfected with the membrane-bound phosphatase construct termed ArtPlasMA AP and H2B-GFP and incubated with the dye Di-10A-ASPBS. Brightfield image and fluorescence image before (−1 sec) and after addition of dye (20 sec).
Two control experiments were performed: In the first control, cells were transfected only with the transfection marker H2B-GFP. […] In addition, no difference in staining intensity between transfected and untransfected cells can be discerned (FIG. 19C). In the second control experiment, cells were cotransfected with the phosphatase construct and the transfection marker.

Di-12-phosphato-ASPBS [Di-12P-ASPBS] was tested, and the “staining of directly adjacent cells” value (after 10 minutes incubation) was “Directly adjacent cells are weakly stained”, the “localization of staining over several minutes” value (cells cotransfected with ArtPlasMA AP and H2B-GFP) was “Staining is well localized even after 10 minutes incubation” and the “staining of control cells without phosphatase” value (transfected only with H2B-GFP) was “only weakly stained”.
